This note sets out measurements from PubChem BioAssay AID1549 (Sanford-Burnham Center for Chemical Genomics, 2009).

Activity calls are given as the source filed them. No rule for the calls is given here.

The test deals with Influenza A virus M2 proton channel (A/TW/4845/1999 H1N1). The test is described as follows: NMR binding screen, influenza A virus M2 proton channel, Kd (AID 1549). To be noted: M2 protein.
What is called Kd is the free concentration of one partner at which half of the binding sites on the other are occupied at equilibrium, for simple one-to-one binding. `CC1CC[C@@]2(OC1)O[C@H]1CC3C4CC[C@@H]5C[C@@H](O)CC[C@]5(C)C4CC[C@]3(C)[C@H]1[C@@H]2C` (stereo partly specified): the Kd is > 4 mM (inactive). For `CC(C)Nc1nc2n(c(=O)n1)CCN2C(C)C` the value was > 4 mM (inactive); for `CCOC(=O)C1CN(C)CCN1C` (stereo unspecified), > 4 mM (inactive). In the case of `Nc1nc2n(c1C(=O)c1ccccc1)CCC2`, the Kd is > 4 mM (inactive). For `CC1(C)Cc2nc3n[nH]c(N)c3cc2CO1` the value was > 4 mM (inactive). For `Cc1noc(C)c1C(=O)N1CCC2(CC1)OCCO2` the value was > 4 mM (inactive); for `c1cncc(Cn2cccc2)c1`, > 4 mM (inactive). For `CC1(C)C=CC(=O)[C@@]2(C)C1CC(=O)[C@]1(C)C2CC[C@@]2(C)[C@H](c3ccoc3)OC(=O)C3OC321` (stereo partly specified) the value was > 4 mM (inactive).

Take `CNc1nc(SC)nc(N2CCOCC2)n1`: the Kd is > 4 mM (inactive). Consider `Nc1ccc(N2CCOCC2)cc1`, for which the Kd was > 4 mM (inactive). Turning to `O=C(NCc1cccs1)c1nn2cccnc2c1Cl`, the Kd is > 4 mM (inactive). As to `CC(=O)CC1(O)C(=O)Nc2ccccc21` (stereo unspecified), the Kd is > 4 mM (inactive).

As for `Cc1ccc(-c2nn3c(C)nnc3s2)cc1N`, the Kd was > 4 mM (inactive).

As to `O=C(O)C1CSC(c2ccc(Cl)cc2)N1` (stereo unspecified), the Kd is > 4 mM (inactive). Under `O=C(O)CC1Sc2ccccc2NC1=O` (stereo unspecified) stands > 4 mM (inactive); under `Cc1nc2c(n1O)CCc1c-2no[n+]1[O-]`, > 4 mM (inactive). Under `Cc1ccc(/C=N/NC(N)=O)o1` stands > 4 mM (inactive). Under `O=C(CC1NCCNC1=O)Nc1ccccc1` (stereo unspecified) stands > 4 mM (inactive); under `c1ccc2[nH]c(NCCN3CCOCC3)nc2c1`, > 4 mM (inactive); under `CN1CCN(Cc2cccnc2)CC1`, > 4 mM (inactive). On to `COC(=O)CC1=Nc2ccccc2NC(=O)C1`, for which the Kd is > 4 mM (inactive). Under `OCc1ccc(-c2cccs2)s1` stands > 4 mM (inactive). `O=C1OCCC1Sc1nc2ccccc2c(=O)[nH]1` (stereo unspecified): the Kd was > 4 mM (inactive). `Cn1[nH]c(C(F)(F)F)cc1=O`: the Kd is > 4 mM (inactive). Under `O=C(CC1SC(=O)NC1=O)Nc1nccs1` (stereo unspecified) stands > 4 mM (inactive); under `O=C(CN1C(=O)CCC1=O)c1ccccc1`, > 4 mM (inactive); under `O=C(O)c1ccc(N2CCOCC2)cc1`, > 4 mM (inactive). Under `CC(C)C(=O)NC(=S)N1CCOCC1` stands > 4 mM (inactive); under `CC(=O)c1cccc(NC(=O)N2CCc3ccccc3C2)c1`, > 4 mM (inactive).

Turning to `Cc1ccccc1NC(=O)N1CCOCC1`, the Kd was > 4 mM (inactive).

As for `O=C(O)CC[N+](=O)[O-]`, the Kd is > 4 mM (inactive). For `CCc1cc(=O)[nH]c(SCC(=O)NCCOC)n1` the value was > 4 mM (inactive); for `CSc1nc2[nH]ncc2c(=O)[nH]1`, > 4 mM (inactive). In the case of `O=C(NCCO)c1cc2ccccc2c(=O)s1`, the Kd is > 4 mM (inactive). For `CC1(C)C[C@@H]2C(=O)CC[C@H]3O[C@]3(C)CC[C@H]21` the value was > 4 mM (inactive).

Turning to `NC(=O)c1c[nH]c2ccccc12`, the Kd is > 4 mM (inactive). Under `O=C(NC(=S)NCc1cccnc1)c1ccco1` stands > 4 mM (inactive); under `Cc1ccc(C(C)C)cc2c(C)ccc1-2`, > 4 mM (inactive). Under `CC(C)=CCOc1cc2oc(=O)ccc2cc1O` stands > 4 mM (inactive); under `CCc1ccccc1OCc1nnc(N)s1`, > 4 mM (inactive). Under `O=C1CCCC(=O)N1c1ccc(O)cc1` stands > 4 mM (inactive); under `COC(=O)C[C@@H]1C2(C)C(=O)[C@@H](CC3=C4CC(O)O[C@@H](c5ccoc5)[C@]4(C)CCC32)[C@H](O)C1(C)C` (stereo partly specified), > 4 mM (inactive); under `COc1ccc2c(c1)=C(c1sc(N)nc1O)C(=O)N=2`, > 4 mM (inactive). As for `NC(=O)CSc1nnnn1-c1ccccc1`, the Kd was > 4 mM (inactive). For `Nc1nc(-c2ccncc2)cs1` the value was > 4 mM (inactive); for `O=C(Nc1ccccc1)Nc1ccccn1`, > 4 mM (inactive). For the compound `O=C(Nc1ccncc1)Nc1ccc(F)cc1F`, the Kd is > 4 mM (inactive). Under `Cc1cc(C)n(S(=O)(=O)c2ccc(C(C)(C)C)cc2)n1` stands > 4 mM (inactive); under `CSc1ccccc1NC(=O)c1ccco1`, > 4 mM (inactive); under `Cc1nn(C)c(Cl)c1S(=O)(=O)N1CCOCC1`, > 4 mM (inactive).

For the compound `Cn1c(O)c(/C=C2\C=CC=N2)c(=O)[nH]c1=S`, the Kd was > 4 mM (inactive). For `Cc1nc2cc(Cl)ccc2n1CCO` the value was > 4 mM (inactive); for `CN1C(=O)N(C)C2NC(=O)NC21` (stereo unspecified), > 4 mM (inactive). With `CC(C)(C)P(=O)(O)c1ccccc1`, the Kd was > 4 mM (inactive). As for `Nc1c(/C=C2\C=Nc3ccccc32)c(=O)nc2scnn12`, the Kd is > 4 mM (inactive). For `O=C(O)CSCc1ccc(Cl)cc1` the value was > 4 mM (inactive). Under `C[N+](C)(C)CC(O)CC(=O)O` (stereo unspecified) stands > 4 mM (inactive).

`O=c1cc(-c2cc(O)c(O)c(O)c2)oc2cc(O)cc(O)c12`: the Kd is > 4 mM (inactive). On to `O=C(NS(=O)(=O)c1ccccc1)c1ccccc1F`, for which the Kd was > 4 mM (inactive).

`CC(=O)Nc1cc(N2C(=O)C=CC2=O)ccc1Cl`: the Kd is > 4 mM (inactive). Take `CN1CCC(N(C)Cc2cccnc2)CC1`: the Kd is > 4 mM (inactive). For `CC(=O)OC[C@H]1O[C@@H](Oc2cc(OC(C)=O)c3c(=O)cc(-c4ccc(OC(C)=O)cc4)oc3c2)[C@H](OC(C)=O)[C@@H](OC(C)=O)[C@@H]1OC(C)=O` the value was > 4 mM (inactive). In the case of `O=C(O)c1csc2ccccc12`, the Kd is > 4 mM (inactive). Under `Cc1ccccc1NC(=O)CC1SC(N)=NC1=O` (stereo unspecified) stands > 4 mM (inactive); under `Cc1cc(C)nc(/N=C(\N)N2CCc3ccccc32)n1`, > 4 mM (inactive); under `Cn1cnc2c(Cl)ncnc21`, > 4 mM (inactive). Under `OCCOc1ccc(C2=NCCO2)cc1` stands > 4 mM (inactive).

As to `Cc1cccc(-c2nnc(-c3ccc(N)cc3)o2)c1`, the Kd is > 4 mM (inactive). For `CCP(=O)(CC)c1cccc(C)c1` the value was > 4 mM (inactive); for `O=C1NC(=S)NC(=O)C1=Cc1ccco1`, > 4 mM (inactive); for `CCOc1ccccc1C(=O)NC1=NCCS1`, > 4 mM (inactive). For `CCCCCC/C=C\CCCCCCCc1cccc(O)c1C(=O)O` the value was > 4 mM (inactive); for `O=C1CCC(=O)N1c1cccc([N+](=O)[O-])c1`, > 4 mM (inactive); for `Nc1nonc1-c1nc2ccccc2[nH]1`, > 4 mM (inactive). Under `Oc1ccc(-n2cncn2)cc1` stands > 4 mM (inactive); under `O=C(OCc1c(F)cccc1Cl)c1cnccn1`, > 4 mM (inactive); under `CC1(C)CC(=O)c2sc(N)nc2C1`, > 4 mM (inactive). As to `Cn1cc(Cl)c(C(=O)NC2CCCCCC2)n1`, the Kd is > 4 mM (inactive). For the compound `O=C(NCCO)c1ccccc1I`, the Kd is > 4 mM (inactive).

Consider `CCC(CO)NC(=O)c1snnc1C` (stereo unspecified), for which the Kd is > 4 mM (inactive). For the compound `O=C(O)c1ccc(CN2CCCCC2)o1`, the Kd is > 4 mM (inactive). For `Cc1ccc(C(=O)CS(C)(=O)=O)cc1` the value was > 4 mM (inactive); for `COc1ccc(-c2c(C)n([O-])c(C)c(C)[n+]2=O)cc1`, > 4 mM (inactive).

For the compound `COc1ccc2c(c1)[n+](=O)c(C(C)=O)c(C)n2[O-]`, the Kd is > 4 mM (inactive).

With `O=C1NC(=S)NC(=O)C1=Cc1ccccc1O`, the Kd is > 4 mM (inactive). As to `CCn1nnc(NC(=O)c2cc3ccccc3o2)n1`, the Kd is > 4 mM (inactive). Take `Nc1nc(SCc2ccccc2)ns1`: the Kd is > 4 mM (inactive). Take `NCc1ccc(S(N)(=O)=O)cc1`: the Kd was > 4 mM (inactive). For `C=C1CCC(C2CC(=O)OC2=O)C(=O)CCC2C1CC2(C)C` (stereo unspecified) the value was > 4 mM (inactive); for `Nc1ncnc2c1ncn2C1C[C@H](O)[C@@H](CO)O1` (stereo partly specified), > 4 mM (inactive). For `COC(=O)CC1SC(=O)NC1=O` (stereo unspecified) the value was > 4 mM (inactive); for `C=CC(C)(O)CC/C=C(\C)CCC=C(C)C` (stereo unspecified), > 4 mM (inactive); for `COc1ccc(C(=O)NCC(=O)O)cc1`, > 4 mM (inactive). On to `CS(=O)(=O)c1ccc2nc(N)sc2c1`, for which the Kd is > 4 mM (inactive).

For the compound `COc1c2c(c(CC=C(C)C)c3oc(=O)c(-c4ccc(O)cc4)c(O)c13)OC(C)(C)C=C2`, the Kd was > 4 mM (inactive). For `NC(=O)CNC(=O)c1ccc2ccccc2n1` the value was > 4 mM (inactive); for `N#Cc1nc(-c2ccccc2Cl)oc1N1CCOCC1`, > 4 mM (inactive); for `NC(=O)C1CC2C=CC1C2` (stereo unspecified), > 4 mM (inactive). Under `O=C(O)C1C(=O)NCC1c1ccccc1` (stereo unspecified) stands > 4 mM (inactive); under `CC1=CCc2c(cc3oc(C)cc(=O)c3c2O)OC1`, > 4 mM (inactive); under `COc1ccc2c(=O)c(CC(=O)O)coc2c1`, > 4 mM (inactive).

As to `COc1ccccc1C(=O)NC1CCN(C)CC1`, the Kd is > 4 mM (inactive).

In the case of `O=C(Nc1ccccc1)NC1CCS(=O)(=O)C1` (stereo unspecified), the Kd was > 4 mM (inactive). For `Cn1cnnc1SCC(=O)Nc1nccs1` the value was > 4 mM (inactive). Under `NN1C(=O)/C(=C/c2ccc(O)c(O)c2)SC1=S` stands > 4 mM (inactive); under `O=C(O)CCC(=O)Nc1nccs1`, > 4 mM (inactive).
